Columns and labels:
[1] = Bulk oil system, stripped corn oil, Rancimat; conditions: PF=IPsample/IPcontrol; Rancimat 100° C., 1 μmol in 3 g oil
Description: One milliliter of EGCG and its derivatives dissolved in ethanol (1 μmol/ml) was transferred into a reaction vessel, followed by evaporation of the solvent to dryness under a stream of nitrogen. To each vessel (an empty vessel was used as control) 3 g of stripped corn oil (devoid of endogenous antioxidants) were added. The evaluation was carried out under accelerated oxidation in a Rancimat (Metrohm Model 743, Herisau, Switzerland) conditions at 100° C. with an air flow rate of 20 l/h. Lipid oxidation in the absence and presence of test compounds was monitored by changes in electrical conductivity, arising from the formation of volatile oxidation products. The induction periods (IP, time to reach a sudden increase in oxidation rate) were recorded. […] Antioxidant activity was interpreted as protection factor (PF), which was calculated as follow. PF=IPsample/IPcontrol where, IPsample and IPcontrol represent induction periods for the oil with and without test compounds, respectively. Discussion

[2] = Metal chelation capacity (ferrozine); conditions: test compounds 1 mM ethanolic solution, FeCl2, ferrozine
Description: An ORAC (Oxygen Radical Absorbance Capacity) assay was carried out using a Fluostar Optima plate reader (BMG Labtech, Durham, N.C.) equipped with an incubator and two injector pumps. A modified method for lipophilic antioxidants was followed, in which randomly methylated cyclodextrin (RMCD) was used as water solubility enhancer, as described by Huang et al, J. Agric. Food Chem., 2002, 50, 1815-1821. Trolox standards (6.25-50 μM) and samples (0.25 μM) were dissolved in acetone/water (1:1, v/v) containing 7% RMCD. Fluorescein and […] [2,2′-azobis(2-aminopropane)dihydrochloride] were used as the probe and radical generator, respectively. Twenty microliters of trolox standard or test compound solutions (7% RMCD used as a control) were added into each well of a 96-well black microplate, followed by addition of fluorescein. The plate was incubated at 37° C. for 15 min and then AAPH in buffer was injected into the wells. The conditions used were as follows: 0.3 s position delay, 8 s orbital shaking before each cycle with 4 mm width, 210 s cycle time, and 25 cycles. Fluorescence was measured at an excitation wavelength of 485 nm and emission of 520 nm. A standard curve was plotted and ORAC values for test compounds were obtained as mol of trolox equivalents (TE) per mol of test compound. (3b) Reducing Power The reducing power of EGCG and its derivatives (compounds 1a-1c) was determined according to Oyaizu (1986). One milliliter of test compounds (1 mM in 95% ethanol) was mixed with 2.5 ml of phosphate buffer solution (PBS, 0.2 M, pH 6.6) and 2.5 ml of a 1% solution of potassium ferricyanide, K3Fe(CN)6. The mixture was incubated at 50° C. for 20 min. […] The content was mixed well and the absorbance was recorded at 700 nm. Higher absorbance of the reaction mixture indicates greater reducing power. […] (3c) Metal Chelation The metal chelation capacity was measured following a procedure by Decker E. A. et al., J. Agric. […] The absorbance was measured afterwards at 562 nm. A blank without ferrozine was run for each compound, since the antioxidant-Fe^2+ complex gives a colour that might interfere with the absorbance reading. Metal chelation capacity was calculated using the following equation: % chelation=[1−(Abs.sample−Abs.blank)/Abs.control]×100 where, control was devoid of test compounds, while blank contained no ferrozine. (3d) DPPH Antioxidant activity of the lipophilic EGCG derivatives was ALSO evaluated as DPPH (1,1-diphenyl-2-picrylhydrazyl) radical scavenging capacity using EGCG as the reference. DPPH scavenging capacity of test compounds was determined by EPR (electron paramagnetic resonance) according to Madhujith and Shahidi (16) with slight modifications. […] The spectrum was recorded after 1 min. […]

[3] = Incorporation into liposomes; assay type: physicochemical; conditions: 500 μM in ethanol added to MLV, 20 min, 37° C.
Description: Phosphotidylcholine (PC) (25 mg) was dissolved in a small amount of chloroform in a round bottom flask, followed by evaporation of the solvent with a rotary evaporator to obtain a thin layer film on the inner surface of the flask. Trace solvent was removed by nitrogen flush. An aqueous glucose solution (300 mM, 5 ml) was added to the flask, and the content was thoroughly vortexed and sonicated in an ultrosonicator, followed by a repeated freeze-thaw processing (4 times). The liposomal solution was diluted with 45 ml of phosphate buffer saline (PBS, 50 mM, pH7.4) and transferred into a centrifuge tube. The content was centrifuged at 13000 g for 5 min to remove the untrapped glucose. The sediment was re-suspended in 25 ml of PBS to obtain a final liposomal MLV. An aliquot (0.9 ml) of the above MLV was transferred to an Eppendorf tube containing 0.1 ml of test compounds (500 μM in ethanol) or ethanol blank. The content was mixed by vortexing and incubated for 20 min at 37° C. After incubation the mixture was centrifuged at 13000 g for 5 min, and the sediment was washed with 1 ml of 10% ethanol (in PBS), followed by a second centrifugation. The supernatants were combined and absorbance measured at 280 nm. A series of standard solutions in 10% ethanol at different concentrations was prepared for each test compound and their absorbance measured at 280 nm to construct a standard curve (absorbance VS. concentration). The un-incorporated test compounds in the supernatant were quantified using their corresponding standard curve. Percentage incorporation of each compound into the liposomes was calculated according to the following equation: % incorporation=100×(1−amount un-incorporated/amount added)=100×(1−C×2/50) where, C is the concentration of test compounds read from the standard curve. Discussion

| Compound | Protection Factor (PF) [1] | Metal chelation [2] | % incorporation into liposomes [3] |
| --- | --- | --- | --- |
| CCCCCCCCCCCCCCCCCC(=O)Oc1cc(C(=O)OC2Cc3c(O)cc(O)cc3OC2c2cc(OC(=O)CCCCCCCCCCCCCCCCC)c(O)c(OC(=O)CCCCCCCCCCCCCCCCC)c2)cc(OC(=O)CCCCCCCCCCCCCCCCC)c1O (stereo not drawn) [Compound 1a, EGCG stearate] | 2.38 | 8.33% | 91.19% |
| CCC=CCC=CCC=CCC=CCC=CCCCC(=O)Oc1cc(C(=O)OC2Cc3c(O)cc(O)cc3OC2c2cc(OC(=O)CCCC=CCC=CCC=CCC=CCC=CCC)c(O)c(OC(=O)CCCC=CCC=CCC=CCC=CCC=CCC)c2)cc(OC(=O)CCCC=CCC=CCC=CCC=CCC=CCC)c1O (stereo not drawn) [Compound 1b] | 0.82 | 35.42% | 71.81% |
| CCC=CCC=CCC=CCC=CCC=CCC=CCCC(=O)Oc1cc(C(=O)OC2Cc3c(O)cc(O)cc3OC2c2cc(OC(=O)CCC=CCC=CCC=CCC=CCC=CCC=CCC)c(O)c(OC(=O)CCC=CCC=CCC=CCC=CCC=CCC=CCC)c2)cc(OC(=O)CCC=CCC=CCC=CCC=CCC=CCC=CCC)c1O (stereo not drawn) [Compound 1c] | 0.77 | 28.13% | 80.91% |
| O=C(O[C@@H]1Cc2c(O)cc(O)cc2O[C@@H]1c1cc(O)c(O)c(O)c1)c1cc(O)c(O)c(O)c1 [EGCG, Epigallocatechin gallate, reference compound] | 1.40 | 10.42% | 65.17% |

— patent US9018248B2, “Fatty acid derivatives of catechins and methods of their use” (Genesis Group Inc., priority 2010, dated 2015)
